Assay results taken from article PMC7854383, “Cellular Uptake of Psychostimulants – Are High- and Low-Affinity Organic Cation Transporters Drug Traffickers?” (Frontiers in Pharmacology, 2021).
Substitutions are numbered along the chain they refer to. Where “and” joins values, the source holds several entries; their conditions need not be identical. Equal values may be shown once.

Experiments:
[1] = molecular target: T1, OCT1 (Homo sapiens, UniProt O15245); assay: Inhibition of mescaline uptake by OCT1; type: in vitro ADME; design: expressed in transfected cells; details: 1 mM MPP^+; compared with empty vector-transfected cells
T1 sequence (O15245 1-554): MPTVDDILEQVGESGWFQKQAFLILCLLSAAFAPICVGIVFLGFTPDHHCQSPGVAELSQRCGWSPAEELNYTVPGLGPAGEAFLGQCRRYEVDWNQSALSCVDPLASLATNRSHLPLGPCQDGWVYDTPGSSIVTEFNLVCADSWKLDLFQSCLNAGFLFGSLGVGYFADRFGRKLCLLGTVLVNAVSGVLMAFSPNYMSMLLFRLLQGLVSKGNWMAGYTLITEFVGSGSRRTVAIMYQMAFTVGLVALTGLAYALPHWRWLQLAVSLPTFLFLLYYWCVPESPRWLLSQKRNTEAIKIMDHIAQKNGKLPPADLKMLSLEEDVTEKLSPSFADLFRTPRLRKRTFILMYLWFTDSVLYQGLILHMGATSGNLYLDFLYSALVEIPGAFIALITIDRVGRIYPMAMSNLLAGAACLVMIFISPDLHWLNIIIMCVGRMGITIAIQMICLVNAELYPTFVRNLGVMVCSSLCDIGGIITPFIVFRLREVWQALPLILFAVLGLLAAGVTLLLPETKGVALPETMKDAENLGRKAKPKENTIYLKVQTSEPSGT

[2] = molecular target: T2, DAT (Homo sapiens, UniProt Q01959); assay: Screening of cellular uptake at 1 µM, DAT-overexpressing HEK293 cells over empty vector control cells; details: 2 min
Description: (§3) The HEK293 cells were cultered in DMEM medium supplemented with 10% (v/v) fetal bovine serum as well as penicillin (100 U/ml) and streptomycin (100 μg/ml) obtained from Thermo Fisher Scientific (Darmstadt, Germany). Cells were seeded on 12-well plates coated with poly-D-lysine (Sigma-Aldrich, Taufkirchen, Germany) 48 h before the transport experiments and incubated at 37°C, 95% relative humidity, and 5% CO2. […] All cell lines were washed with 37°C HBSS+ and subsequently incubated with the pre-warmed substrate in HBSS+ at 37°C. The time points for measuring substrate uptake were 1 min for MATE2-K and 2 min for the other SLCs. […] The reaction was stopped by adding ice-cold HBSS+, and the cells were washed twice with ice-cold HBSS+ before lysis with 80% acetonitrile (LGC Standards, Wesel, Germany) including an internal standard. Subsequently, the intracellular substrate accumulation was determined using LC-MS/MS.
(§4) Intracellular accumulation was measured by HPLC-MS/MS using a Shimadzu Nexera HPLC system with a LC-30AD pump, a SIL-30AC autosampler, a CTO-20AC column oven, and a CBM-20A controller (Shimadzu, Kyoto, Japan). […] Peak integration and quantification of the analytes was done using the Analyst software (Version 1.6.2, AB SCIEX, Darmstadt, Germany) and determined by simultaneous measurement of standard curves with known concentrations.

[3] = molecular target: T3, OCT1*3 (R61C) (Homo sapiens, UniProt O15245, R61C)
T3 sequence (O15245 1-554 R61C): T1 sequence (O15245 1-554) with R61C
Description: (§5) The cells were kept in culture for no more than 30 passages.
(§6) The HEK293 cells were cultered in DMEM medium supplemented with 10% (v/v) fetal bovine serum as well as penicillin (100 U/ml) and streptomycin (100 μg/ml) obtained from Thermo Fisher Scientific (Darmstadt, Germany). Cells were seeded on 12-well plates coated with poly-D-lysine (Sigma-Aldrich, Taufkirchen, Germany) 48 h before the transport experiments and incubated at 37°C, 95% relative humidity, and 5% CO2. Cell lines overexpressing MATE2-K were incubated with 30 mM NH4Cl in HBSS+ (10 mM HEPES in HBSS, pH 7.4; Thermo Fisher Scientific, Darmstadt, Germany) for 30 min prior to the assay to invert the direction of transport. All cell lines were washed with 37°C HBSS+ and subsequently incubated with the pre-warmed substrate in HBSS+ at 37°C. […] Subsequently, the intracellular substrate accumulation was determined using LC-MS/MS.
(§7) Intracellular accumulation was measured by HPLC-MS/MS using a Shimadzu Nexera HPLC system with a LC-30AD pump, a SIL-30AC autosampler, a CTO-20AC column oven, and a CBM-20A controller (Shimadzu, Kyoto, Japan). […] Peak integration and quantification of the analytes was done using the Analyst software (Version 1.6.2, AB SCIEX, Darmstadt, Germany) and determined by simultaneous measurement of standard curves with known concentrations. […]

[4] = molecular target: T4, MATE2-K (Homo sapiens, UniProt Q86VL8); assay: Screening of cellular uptake at 1 µM, MATE2-K-overexpressing HEK293 cells over empty vector control cells; type: in vitro ADME; details: 1 min
T4 construct: expressed in transfected cells
Text: (§1) Koepsell and Gorbulev (University of Würzburg, Germany).
(§2) Eighteen psychostimulants and hallucinogens were initially screened for their potential to be substrates for different polyspecific OCTs and high-affinity monoamine neurotransmitter transporters (Figure 3), as well as for the efflux transporter MATE2-K (Supplementary Figure S1).

[5] = molecular target: T1, OCT1; assay: Screening of cellular uptake at 1 µM, OCT1-overexpressing HEK293 cells over empty vector control cells; details: 2 min
Text: as §1, §2

[6] = molecular target: T5, OCT3 (Homo sapiens, UniProt O75751); assay: Screening of cellular uptake at 1 µM, OCT3-overexpressing HEK293 cells over empty vector control cells; type: in vitro ADME; details: 2 min
T5 construct: Koepsell and Gorbulev (University of Würzburg); host or cells: HEK293
T5 sequence (O75751 1-556): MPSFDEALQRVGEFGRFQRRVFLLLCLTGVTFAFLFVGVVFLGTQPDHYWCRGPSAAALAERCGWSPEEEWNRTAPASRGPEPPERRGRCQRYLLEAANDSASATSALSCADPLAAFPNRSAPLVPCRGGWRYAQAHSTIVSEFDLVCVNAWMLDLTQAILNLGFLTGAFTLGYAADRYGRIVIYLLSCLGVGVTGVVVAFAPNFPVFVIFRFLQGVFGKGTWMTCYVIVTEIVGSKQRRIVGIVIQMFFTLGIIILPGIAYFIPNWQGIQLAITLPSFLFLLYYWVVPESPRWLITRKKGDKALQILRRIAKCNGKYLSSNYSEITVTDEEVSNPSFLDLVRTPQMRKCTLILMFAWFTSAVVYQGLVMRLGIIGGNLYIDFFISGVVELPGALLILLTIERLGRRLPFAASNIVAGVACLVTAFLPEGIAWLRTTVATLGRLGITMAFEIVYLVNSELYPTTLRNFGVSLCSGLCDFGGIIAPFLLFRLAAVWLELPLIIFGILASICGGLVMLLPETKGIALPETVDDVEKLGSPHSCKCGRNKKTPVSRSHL
Text: as §1, §2

[7] = molecular target: NET (Homo sapiens, UniProt P23975); assay: Screening of cellular uptake at 1 µM, NET-overexpressing HEK293 cells over empty vector control cells; details: 2 min
Description: as §3, §4

[8] = molecular target: T6, OCT1*1 (WT) (Homo sapiens, UniProt O15245); details: net transport, 2 min
T6 sequence (O15245 1-554): T1 sequence (O15245 1-554)
Description: as §5, §6, §7

[9] = molecular target: T7, OCT1*6 (M420del, C88R) (Homo sapiens, UniProt O15245, C88R/DEL420-420)
T7 sequence (O15245 with tags, fused parts or gaps C88R/DEL420-420): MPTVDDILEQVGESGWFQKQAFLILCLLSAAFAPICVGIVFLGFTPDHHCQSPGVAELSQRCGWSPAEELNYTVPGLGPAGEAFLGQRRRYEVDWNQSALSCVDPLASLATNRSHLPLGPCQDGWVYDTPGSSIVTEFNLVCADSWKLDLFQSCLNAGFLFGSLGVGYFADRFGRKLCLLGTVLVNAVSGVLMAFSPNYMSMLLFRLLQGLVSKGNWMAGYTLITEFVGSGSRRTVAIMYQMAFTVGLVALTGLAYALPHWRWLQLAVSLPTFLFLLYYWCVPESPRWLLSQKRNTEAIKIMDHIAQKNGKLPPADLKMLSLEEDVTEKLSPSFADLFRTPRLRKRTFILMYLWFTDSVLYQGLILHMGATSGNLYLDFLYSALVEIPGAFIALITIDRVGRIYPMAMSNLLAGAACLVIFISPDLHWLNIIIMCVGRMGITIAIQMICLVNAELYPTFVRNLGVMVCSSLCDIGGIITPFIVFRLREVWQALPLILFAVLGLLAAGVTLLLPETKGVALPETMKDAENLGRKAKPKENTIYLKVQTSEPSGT
Description: as §5
The HEK293 cells were cultered in DMEM medium supplemented with 10% (v/v) fetal bovine serum as well as penicillin (100 U/ml) and streptomycin (100 μg/ml) obtained from Thermo Fisher Scientific (Darmstadt, Germany). Cells were seeded on 12-well plates coated with poly-D-lysine (Sigma-Aldrich, Taufkirchen, Germany) 48 h before the transport experiments and incubated at 37°C, 95% relative humidity, and 5% CO2. Cell lines overexpressing MATE2-K were incubated with 30 mM NH4Cl in HBSS+ (10 mM HEPES in HBSS, pH 7.4; Thermo Fisher Scientific, Darmstadt, Germany) for 30 min prior to the assay to invert the direction of transport. All cell lines were washed with 37°C HBSS+ and subsequently incubated with the pre-warmed substrate in HBSS+ at 37°C. The time points for measuring substrate uptake were 1 min for MATE2-K and 2 min for the other SLCs. […] It was assumed to be linear for the other transporters as well, based on previous experience with these expression systems. […] Subsequently, the intracellular substrate accumulation was determined using LC-MS/MS.
as §4
For the screenings, cellular uptake measured in cell lines overexpressing the respective transporter was divided by the uptake measured in an empty vector control cell line to calculate normalised ratios to enable comparisons between test compounds. For studying transport kinetics, the net transport mediated by the overexpressed transporters was calculated by subtracting the cellular uptake measured in an empty vector control cell line from the uptake in cell lines overexpressing the respective transporter. […]

[10] = molecular target: SERT (Homo sapiens, UniProt P31645); assay: Screening of cellular uptake at 1 µM, SERT-overexpressing HEK293 cells over empty vector control cells; type: in vitro ADME; details: 2 min
[11] = four healthy volunteers; ref Toennes and Kauert, 2002; www.dosing.de and www.drugbank.ca; cited from earlier work
[12] = molecular target: T8, OCT2 (Homo sapiens, UniProt O15244); assay: Screening of cellular uptake at 1 µM, OCT2-overexpressing HEK293 cells over empty vector control cells; details: 2 min
T8 sequence (O15244 1-555 S270A): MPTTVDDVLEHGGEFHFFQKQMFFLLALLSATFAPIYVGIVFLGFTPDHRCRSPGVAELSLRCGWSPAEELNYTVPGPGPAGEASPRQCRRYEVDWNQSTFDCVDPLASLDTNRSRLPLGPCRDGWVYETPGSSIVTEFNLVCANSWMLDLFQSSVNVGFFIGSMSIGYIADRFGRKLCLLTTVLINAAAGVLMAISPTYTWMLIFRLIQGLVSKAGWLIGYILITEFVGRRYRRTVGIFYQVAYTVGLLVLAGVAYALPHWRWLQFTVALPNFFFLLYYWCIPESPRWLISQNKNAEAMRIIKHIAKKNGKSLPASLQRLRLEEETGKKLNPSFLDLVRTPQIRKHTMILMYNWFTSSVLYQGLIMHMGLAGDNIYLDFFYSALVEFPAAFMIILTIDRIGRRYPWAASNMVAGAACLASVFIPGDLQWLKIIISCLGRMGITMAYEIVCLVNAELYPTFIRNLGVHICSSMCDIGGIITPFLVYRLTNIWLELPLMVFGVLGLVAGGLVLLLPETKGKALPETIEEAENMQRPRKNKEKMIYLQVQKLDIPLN
Text: as §1, §2

[13] = molecular target: T9, wild-type OCT2 (Homo sapiens, UniProt O15244); assay: Concentration-dependent transport by wild-type OCT2 in HEK293 cells
T9 sequence (O15244 1-555 S270A): T8 sequence (O15244 1-555 S270A)

[14] = molecular target: T2, DAT; assay: Concentration-dependent transport by DAT in HEK293 cells; details: DAT versus NET
[15] = molecular target: T10, OCT2 variant A270S (Homo sapiens, UniProt O15244); assay: Concentration-dependent transport by OCT2 variant A270S in HEK293 cells
T10 sequence (O15244 1-555): T8 sequence (O15244 1-555 S270A) with A270S

T2 sequence (Q01959 whole entry): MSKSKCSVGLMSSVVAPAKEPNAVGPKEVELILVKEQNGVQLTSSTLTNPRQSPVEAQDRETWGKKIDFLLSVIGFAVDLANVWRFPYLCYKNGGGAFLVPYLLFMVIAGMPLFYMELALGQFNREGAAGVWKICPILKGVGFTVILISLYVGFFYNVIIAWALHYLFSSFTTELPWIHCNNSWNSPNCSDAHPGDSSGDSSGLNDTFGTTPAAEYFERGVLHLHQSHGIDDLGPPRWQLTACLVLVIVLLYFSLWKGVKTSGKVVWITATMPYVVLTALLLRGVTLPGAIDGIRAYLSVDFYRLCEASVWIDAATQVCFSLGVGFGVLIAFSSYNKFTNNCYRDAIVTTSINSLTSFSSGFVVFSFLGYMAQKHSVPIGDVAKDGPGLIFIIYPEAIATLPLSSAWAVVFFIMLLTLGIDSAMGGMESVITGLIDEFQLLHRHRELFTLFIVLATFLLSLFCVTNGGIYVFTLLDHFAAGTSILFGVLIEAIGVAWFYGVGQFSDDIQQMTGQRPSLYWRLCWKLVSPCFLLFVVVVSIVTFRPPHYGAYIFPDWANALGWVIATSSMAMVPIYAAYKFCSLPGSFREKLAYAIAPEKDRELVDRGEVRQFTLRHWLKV
Sequence of NET (P23975 whole entry): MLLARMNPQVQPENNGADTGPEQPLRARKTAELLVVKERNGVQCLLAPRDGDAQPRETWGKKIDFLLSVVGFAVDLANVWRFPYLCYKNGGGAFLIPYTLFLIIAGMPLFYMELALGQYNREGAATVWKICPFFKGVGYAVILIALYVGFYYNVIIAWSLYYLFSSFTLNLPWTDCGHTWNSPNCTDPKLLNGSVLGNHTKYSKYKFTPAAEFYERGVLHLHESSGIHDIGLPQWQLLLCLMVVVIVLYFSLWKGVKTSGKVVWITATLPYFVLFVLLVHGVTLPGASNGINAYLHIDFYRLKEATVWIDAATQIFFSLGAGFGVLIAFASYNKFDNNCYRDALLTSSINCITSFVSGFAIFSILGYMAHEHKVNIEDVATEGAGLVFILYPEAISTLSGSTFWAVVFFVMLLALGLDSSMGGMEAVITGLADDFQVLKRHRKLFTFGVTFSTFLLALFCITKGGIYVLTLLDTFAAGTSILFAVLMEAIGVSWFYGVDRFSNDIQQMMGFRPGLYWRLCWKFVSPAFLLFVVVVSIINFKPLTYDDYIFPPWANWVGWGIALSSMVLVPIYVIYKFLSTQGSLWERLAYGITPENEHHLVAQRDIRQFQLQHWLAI
T4 sequence (Q86VL8 1-566 isoform Q86VL8-3): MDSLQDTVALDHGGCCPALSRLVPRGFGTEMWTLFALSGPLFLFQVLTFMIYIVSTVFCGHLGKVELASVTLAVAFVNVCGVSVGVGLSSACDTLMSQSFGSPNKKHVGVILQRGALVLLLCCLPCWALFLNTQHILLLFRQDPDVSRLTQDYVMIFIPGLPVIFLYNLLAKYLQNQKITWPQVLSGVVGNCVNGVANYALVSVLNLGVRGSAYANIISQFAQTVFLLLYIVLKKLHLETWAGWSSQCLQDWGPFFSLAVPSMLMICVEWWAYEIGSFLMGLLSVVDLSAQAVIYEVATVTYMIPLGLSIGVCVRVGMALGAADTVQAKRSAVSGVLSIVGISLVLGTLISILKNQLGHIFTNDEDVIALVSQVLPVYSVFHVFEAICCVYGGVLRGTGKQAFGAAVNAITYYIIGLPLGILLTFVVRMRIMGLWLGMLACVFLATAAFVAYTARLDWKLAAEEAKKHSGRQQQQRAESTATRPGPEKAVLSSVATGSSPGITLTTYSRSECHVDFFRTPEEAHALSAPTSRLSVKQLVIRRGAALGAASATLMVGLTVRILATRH
Sequence of SERT (P31645 whole entry): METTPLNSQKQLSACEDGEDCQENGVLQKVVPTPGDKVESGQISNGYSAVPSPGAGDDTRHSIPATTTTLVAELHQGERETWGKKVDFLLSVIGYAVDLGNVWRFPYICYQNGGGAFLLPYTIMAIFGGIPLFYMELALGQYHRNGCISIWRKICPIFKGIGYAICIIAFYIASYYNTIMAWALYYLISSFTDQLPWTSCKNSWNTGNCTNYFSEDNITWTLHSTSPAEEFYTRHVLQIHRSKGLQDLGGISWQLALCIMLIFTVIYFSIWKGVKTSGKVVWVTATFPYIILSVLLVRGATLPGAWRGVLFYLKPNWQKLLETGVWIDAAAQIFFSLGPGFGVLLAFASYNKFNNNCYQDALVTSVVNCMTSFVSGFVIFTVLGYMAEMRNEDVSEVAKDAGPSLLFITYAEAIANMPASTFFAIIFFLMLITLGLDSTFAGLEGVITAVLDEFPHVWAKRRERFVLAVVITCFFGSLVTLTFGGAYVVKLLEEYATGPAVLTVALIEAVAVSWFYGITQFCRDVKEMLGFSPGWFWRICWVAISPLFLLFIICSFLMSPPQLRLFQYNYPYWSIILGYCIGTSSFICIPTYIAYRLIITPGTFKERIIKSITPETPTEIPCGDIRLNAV

SMILES | inhibition of mescaline uptake by OCT1 [1] | ratio of uptake in transporter-transfected cells over empty vector control cells [2] | vmax [3] | ratio of uptake in transporter-transfected cells over empty vector control cells [4] | ratio of uptake in transporter-transfected cells over empty vector control cells [5] | ratio of uptake in transporter-transfected cells over empty vector control cells [6] | ratio of uptake in transporter-transfected cells over empty vector control cells [7] | vmax [8] | transport activity ([9]; OCT1*6) | Km ([9]; OCT1*6 (M420del, C88R)) | vmax ([9]; OCT1*6 (M420del, C88R)) | ratio of uptake in transporter-transfected cells over empty vector control cells [10] | excreted unchanged in urine [11] | ratio of uptake in transporter-transfected cells over empty vector control cells [12] | vmax ([13]; OCT2 WT) | Km at 2 min ([13]; human, pH 7.4) | Km higher for DAT compared with NET [14] | vmax higher for DAT compared with NET [14] | vmax ([15]; OCT2 A270S) | Km at 2 min ([15]; human, pH 7.4)
C[n+]1ccc(-c2ccccc2)cc1 [MPP^+, 1-methyl-4-phenylpyridinium] | completely inhibited | – | – | – | – | – | – | – | – | – | – | – | – | – | – | – | – | – | – | –
COc1cc(CCN)cc(OC)c1OC [Mescaline] | – | not transported much | 391 ± 266 pmol × mg protein^−1 × min^−1 | not transported much | more than 8 fold | not transported much | not transported much | 642 pmol × mg protein^−1 × min^−1 and 642 ± 57 pmol × mg protein^−1 × min^−1 | very low transport activity | Not determinable | Not determinable | not transported much | – | – | – | – | – | – | – | –
C[C@H](N)[C@@H](O)c1ccccc1 [Cathine, (+)-norpseudoephedrine] | – | 7 fold | – | – | – | – | 4 fold | – | – | – | – | – | 46–65% | 4- to 6 fold | 570.1 (± 94.3) pmol × mg protein^-1 × min^-1 | 46 ± 17.3 µM | 21 fold | 10 fold | 505.4 (± 168.1) pmol × mg protein^-1 × min^-1 | 58.4 µM
